Test: Maximum concentration of ingredient incorporated into the microemulsion
Type: physicochemical
Conditions: incorporated into the microemulsion formulation of Table 28

Compound	Approximate Maximum Concentration
C[C@]12C=CC(=O)C=C1CC[C@@H]1[C@@H]2C(=O)C[C@@]2(C)[C@H]1CC[C@]2(O)C(=O)CO [Prednisone, reference compound]	0.5
CCCCCC [Hexane]	2.0
CC(=O)Oc1c(C)c(C)c2c(c1C)CCC(C)(CCC[C@H](C)CCC[C@H](C)CCCC(C)C)O2 (stereo partly drawn) [Vitamin E, α-Tocopherol acetate, reference compound]	1.0
Cc1ccccc1 [Toluene]	2.0
Xylene	5.0
